Experimental data from US20230074545A1, “TREATMENT OF CANCER WITH CDK12/13 INHIBITORS” (Kinnate Biopharma Inc., priority 2019, published 2023).

Key:
Experiment in all cases: Radiometric kinase panel
Assay type in all cases: biochemical
[1] = biological target: T1, VRK2 (Homo sapiens, UniProt Q86Y07)
T1 construct: either as full-length or enzymatically active fragments; purchased ProQinase GmbH (Reaction Biology); host or cells: Sf9 insect cells or E. coli
In short: (§1)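 Activity was measured radiometrically from [gamma-33P]-ATP incorporation into substrate. The kinases were recombinant human GST- or His-tagged proteins, full-length or active fragments, expressed in Sf9 or E. coli. Compound in 10% DMSO was added before the enzyme/substrate mix, which started the reaction.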

[2] = biological target: T2, JNK3 (Homo sapiens, UniProt P53779)
T2 construct: either as full-length or enzymatically active fragments; purchased ProQinase GmbH (Reaction Biology)
In short: as §1

[3] = biological target: T3, STK23 (Homo sapiens, UniProt Q9UPE1)
T3 construct: either as full-length or enzymatically active fragments; purchased ProQinase GmbH (Reaction Biology)
In short: as §1

[4] = biological target: T4, PKCdelta (Homo sapiens, UniProt Q05655)
T4 construct: purchased ProQinase GmbH (Reaction Biology)
In short: as §1

[5] = biological target: T5, GSK3alpha (Homo sapiens, UniProt P49840)
T5 construct: either as full-length or enzymatically active fragments; purchased ProQinase GmbH (Reaction Biology)
In short: as §1

[6] = biological target: T6, NEK6 (Homo sapiens, UniProt Q9HC98)
T6 construct: either as full-length or enzymatically active fragments; purchased ProQinase GmbH (Reaction Biology)
In short: as §1

[7] = biological target: T7, RAF1 YDYD (Homo sapiens, UniProt P04049, Y340D/Y341D)
T7 construct: either as full-length or enzymatically active fragments; purchased ProQinase GmbH (Reaction Biology); host or cells: Sf9 insect cells or E. coli (not specified per kinase)
In short: as §1

[8] = biological target: T8, CAMKID (Homo sapiens, UniProt Q8IU85)
T8 construct: purchased ProQinase GmbH (Reaction Biology)
In short: as §1

[9] = biological target: T9, DNAPK (Homo sapiens, UniProt P78527)
T9 construct: purchased ProQinase GmbH (Reaction Biology); host or cells: Sf9 insect cells or E. coli (not specified per kinase)
In short: as §1

[10] = biological target: T10, CDK4/CycD2 (Homo sapiens, UniProt P11802)
T10 construct: purchased ProQinase GmbH (Reaction Biology)
In short: as §1

[11] = biological target: T11, CAMK2B (Homo sapiens, UniProt Q13554)
T11 construct: either as full-length or enzymatically active fragments; purchased ProQinase GmbH (Reaction Biology)
In short: as §1

[12] = biological target: T12, BRK (Homo sapiens, UniProt Q13882)
T12 construct: purchased ProQinase GmbH (Reaction Biology); host or cells: Sf9 insect cells or E. coli (not specified per kinase)
In short: as §1

[13] = biological target: T13, MAP3K11 (Homo sapiens, UniProt Q16584)
T13 construct: either as full-length or enzymatically active fragments; purchased ProQinase GmbH (Reaction Biology)
In short: as §1

[14] = biological target: T14, CAMK4 (Homo sapiens, UniProt Q16566)
T14 construct: either as full-length or enzymatically active fragments; purchased ProQinase GmbH (Reaction Biology)
In short: as §1

[15] = biological target: T15, SGK1 (Homo sapiens, UniProt O00141)
T15 construct: purchased ProQinase GmbH (Reaction Biology)
In short: as §1

[16] = biological target: T16, TYRO3 (Homo sapiens, UniProt Q06418)
T16 construct: either as full-length or enzymatically active fragments; purchased ProQinase GmbH (Reaction Biology)
In short: as §1

[17] = biological target: T17, PKCmu (Homo sapiens, UniProt Q15139)
T17 construct: either as full-length or enzymatically active fragments; purchased ProQinase GmbH (Reaction Biology)
In short: as §1

[18] = biological target: T18, CDK4/CycD3 (Homo sapiens, UniProt P11802)
T18 construct: either as full-length or enzymatically active fragments; purchased ProQinase GmbH (Reaction Biology); host or cells: Sf9 insect cells or E. coli (not specified per kinase)
In short: as §1

[19] = biological target: T19, CDK6/CycD2 (Homo sapiens, UniProt Q00534)
T19 construct: either as full-length or enzymatically active fragments; purchased ProQinase GmbH (Reaction Biology)
In short: as §1

[20] = biological target: T20, TNK1 (Homo sapiens, UniProt Q13470)
T20 construct: either as full-length or enzymatically active fragments; purchased ProQinase GmbH (Reaction Biology)
In short: as §1

[21] = biological target: T21, CDK2/CycD1 (Homo sapiens, UniProt P24941)
T21 construct: either as full-length or enzymatically active fragments; purchased ProQinase GmbH (Reaction Biology)
In short: as §1

[22] = biological target: T22, JAK2 (Homo sapiens, UniProt O60674)
T22 construct: either as full-length or enzymatically active fragments; purchased ProQinase GmbH (Reaction Biology)
In short: as §1

[23] = biological target: T23, CK2alpha2 (Homo sapiens, UniProt P19784)
T23 construct: either as full-length or enzymatically active fragments; purchased ProQinase GmbH (Reaction Biology)
In short: as §1

[24] = biological target: T24, TLK2 (Homo sapiens, UniProt Q86UE8)
T24 construct: either as full-length or enzymatically active fragments; purchased ProQinase GmbH (Reaction Biology)
In short: as §1

[25] = biological target: T25, MST1 (Homo sapiens, UniProt Q13043)
T25 construct: purchased ProQinase GmbH (Reaction Biology); host or cells: Sf9 insect cells or E. coli (not specified per kinase)
In short: as §1

[26] = biological target: T26, JNK2 (Homo sapiens, UniProt P45984)
T26 construct: either as full-length or enzymatically active fragments; purchased ProQinase GmbH (Reaction Biology)
In short: as §1

[27] = biological target: T27, DAPK2 (Homo sapiens, UniProt Q9UIK4)
T27 construct: either as full-length or enzymatically active fragments; purchased ProQinase GmbH (Reaction Biology); host or cells: Sf9 insect cells or E. coli (not specified per kinase)
In short: as §1

[28] = biological target: T28, PAK6 (Homo sapiens, UniProt Q9NQU5)
T28 construct: either as full-length or enzymatically active fragments; purchased ProQinase GmbH (Reaction Biology)
In short: as §1

[29] = biological target: T29, PRKG2 (Homo sapiens, UniProt Q13237)
T29 construct: either as full-length or enzymatically active fragments; purchased ProQinase GmbH (Reaction Biology)
In short: as §1

[30] = biological target: T30, GSK3beta (Homo sapiens, UniProt P49841)
T30 construct: either as full-length or enzymatically active fragments; purchased ProQinase GmbH (Reaction Biology)
In short: as §1

T30 sequence (P49841 whole entry, the tested form may be a part): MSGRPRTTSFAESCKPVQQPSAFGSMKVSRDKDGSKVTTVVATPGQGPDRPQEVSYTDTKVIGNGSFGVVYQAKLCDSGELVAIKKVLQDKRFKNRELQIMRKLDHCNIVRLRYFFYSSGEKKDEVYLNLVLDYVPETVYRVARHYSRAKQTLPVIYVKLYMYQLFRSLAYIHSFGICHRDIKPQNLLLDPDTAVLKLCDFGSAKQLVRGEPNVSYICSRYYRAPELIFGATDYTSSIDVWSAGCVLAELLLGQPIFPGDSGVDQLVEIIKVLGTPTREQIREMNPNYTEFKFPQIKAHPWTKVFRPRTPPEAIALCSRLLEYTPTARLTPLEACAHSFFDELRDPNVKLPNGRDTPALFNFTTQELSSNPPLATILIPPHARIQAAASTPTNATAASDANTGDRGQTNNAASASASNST
T27 sequence (Q9UIK4 whole entry, the tested form may be a part): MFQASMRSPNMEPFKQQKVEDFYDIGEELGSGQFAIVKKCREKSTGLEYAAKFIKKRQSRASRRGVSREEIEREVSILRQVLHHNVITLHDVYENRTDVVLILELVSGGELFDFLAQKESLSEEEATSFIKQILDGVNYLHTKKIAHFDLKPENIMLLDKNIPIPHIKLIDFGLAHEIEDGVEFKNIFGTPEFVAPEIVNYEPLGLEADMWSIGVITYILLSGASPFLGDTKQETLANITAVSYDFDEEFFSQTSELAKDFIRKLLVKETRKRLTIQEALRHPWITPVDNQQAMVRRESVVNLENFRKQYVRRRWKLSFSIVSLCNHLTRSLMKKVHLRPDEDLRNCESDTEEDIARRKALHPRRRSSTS
T7 sequence (P04049 307-648 Y340D/Y341D limits assumed): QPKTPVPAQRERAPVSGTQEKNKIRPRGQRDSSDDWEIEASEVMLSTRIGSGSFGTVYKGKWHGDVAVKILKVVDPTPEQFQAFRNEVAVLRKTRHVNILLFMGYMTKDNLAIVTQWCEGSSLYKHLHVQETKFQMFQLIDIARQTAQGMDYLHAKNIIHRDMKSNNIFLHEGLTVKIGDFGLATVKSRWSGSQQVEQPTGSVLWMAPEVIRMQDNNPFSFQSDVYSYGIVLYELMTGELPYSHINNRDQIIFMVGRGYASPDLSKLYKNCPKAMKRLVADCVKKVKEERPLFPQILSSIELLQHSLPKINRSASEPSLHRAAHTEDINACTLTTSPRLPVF
T24 sequence (Q86UE8 whole entry, the tested form may be a part): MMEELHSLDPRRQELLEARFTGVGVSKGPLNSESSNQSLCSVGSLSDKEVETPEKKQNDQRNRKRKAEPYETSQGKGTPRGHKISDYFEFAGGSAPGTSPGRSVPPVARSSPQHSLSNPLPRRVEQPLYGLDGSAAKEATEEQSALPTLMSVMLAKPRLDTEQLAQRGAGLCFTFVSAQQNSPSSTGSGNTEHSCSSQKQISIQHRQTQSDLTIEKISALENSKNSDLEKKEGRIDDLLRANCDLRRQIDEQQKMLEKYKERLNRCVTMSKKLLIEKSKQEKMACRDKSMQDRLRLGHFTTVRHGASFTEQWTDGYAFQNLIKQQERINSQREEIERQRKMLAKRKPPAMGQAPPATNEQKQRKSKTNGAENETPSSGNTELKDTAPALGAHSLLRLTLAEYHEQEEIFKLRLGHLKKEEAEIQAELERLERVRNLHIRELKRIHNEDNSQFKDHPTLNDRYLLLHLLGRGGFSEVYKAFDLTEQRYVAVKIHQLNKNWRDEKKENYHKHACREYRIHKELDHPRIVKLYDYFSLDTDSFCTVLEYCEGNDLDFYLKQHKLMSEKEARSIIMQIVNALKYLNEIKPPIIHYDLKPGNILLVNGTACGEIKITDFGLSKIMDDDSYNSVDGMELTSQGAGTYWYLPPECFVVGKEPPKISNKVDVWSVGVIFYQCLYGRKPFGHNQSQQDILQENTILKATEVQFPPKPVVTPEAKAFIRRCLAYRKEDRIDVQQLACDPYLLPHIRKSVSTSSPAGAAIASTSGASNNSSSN
T23 sequence (P19784 whole entry, the tested form may be a part): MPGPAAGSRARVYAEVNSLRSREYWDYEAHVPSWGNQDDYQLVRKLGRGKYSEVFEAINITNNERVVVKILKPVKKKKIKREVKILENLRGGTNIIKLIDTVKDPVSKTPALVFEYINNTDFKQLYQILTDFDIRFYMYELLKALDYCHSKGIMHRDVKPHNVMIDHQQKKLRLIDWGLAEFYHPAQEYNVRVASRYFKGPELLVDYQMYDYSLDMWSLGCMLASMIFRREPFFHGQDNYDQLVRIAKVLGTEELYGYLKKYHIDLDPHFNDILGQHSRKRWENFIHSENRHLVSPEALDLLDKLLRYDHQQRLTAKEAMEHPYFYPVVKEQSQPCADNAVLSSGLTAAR
T22 sequence (O60674 whole entry, the tested form may be a part): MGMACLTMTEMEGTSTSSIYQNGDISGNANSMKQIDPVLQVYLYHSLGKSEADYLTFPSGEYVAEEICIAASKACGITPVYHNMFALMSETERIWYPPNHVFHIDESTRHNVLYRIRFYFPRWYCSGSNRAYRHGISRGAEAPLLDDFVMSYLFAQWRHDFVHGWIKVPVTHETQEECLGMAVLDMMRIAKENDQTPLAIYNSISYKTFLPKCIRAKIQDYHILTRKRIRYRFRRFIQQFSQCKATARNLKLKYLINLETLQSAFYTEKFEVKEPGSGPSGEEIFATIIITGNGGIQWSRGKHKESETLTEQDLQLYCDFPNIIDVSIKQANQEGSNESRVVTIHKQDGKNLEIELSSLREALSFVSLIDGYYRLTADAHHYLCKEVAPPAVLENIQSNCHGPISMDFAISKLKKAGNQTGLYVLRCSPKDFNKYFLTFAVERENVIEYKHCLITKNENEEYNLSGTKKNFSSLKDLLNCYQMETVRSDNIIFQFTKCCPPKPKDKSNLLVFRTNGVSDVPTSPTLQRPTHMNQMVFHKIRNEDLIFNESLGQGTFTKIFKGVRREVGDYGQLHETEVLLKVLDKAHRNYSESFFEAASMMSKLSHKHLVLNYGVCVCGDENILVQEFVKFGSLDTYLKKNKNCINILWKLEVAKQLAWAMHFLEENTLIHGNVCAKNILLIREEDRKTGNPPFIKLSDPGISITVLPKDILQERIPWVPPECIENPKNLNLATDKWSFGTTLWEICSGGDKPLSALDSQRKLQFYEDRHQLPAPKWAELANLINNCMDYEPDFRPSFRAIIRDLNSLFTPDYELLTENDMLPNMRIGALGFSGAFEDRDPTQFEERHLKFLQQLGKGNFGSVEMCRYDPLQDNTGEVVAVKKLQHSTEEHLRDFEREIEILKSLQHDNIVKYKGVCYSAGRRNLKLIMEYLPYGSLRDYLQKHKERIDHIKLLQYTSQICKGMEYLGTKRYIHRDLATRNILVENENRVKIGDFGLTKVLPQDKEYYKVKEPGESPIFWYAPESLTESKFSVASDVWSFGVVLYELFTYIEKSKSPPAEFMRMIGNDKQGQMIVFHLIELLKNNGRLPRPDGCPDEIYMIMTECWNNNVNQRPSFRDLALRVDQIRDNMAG
T1 sequence (Q86Y07 whole entry, the tested form may be a part): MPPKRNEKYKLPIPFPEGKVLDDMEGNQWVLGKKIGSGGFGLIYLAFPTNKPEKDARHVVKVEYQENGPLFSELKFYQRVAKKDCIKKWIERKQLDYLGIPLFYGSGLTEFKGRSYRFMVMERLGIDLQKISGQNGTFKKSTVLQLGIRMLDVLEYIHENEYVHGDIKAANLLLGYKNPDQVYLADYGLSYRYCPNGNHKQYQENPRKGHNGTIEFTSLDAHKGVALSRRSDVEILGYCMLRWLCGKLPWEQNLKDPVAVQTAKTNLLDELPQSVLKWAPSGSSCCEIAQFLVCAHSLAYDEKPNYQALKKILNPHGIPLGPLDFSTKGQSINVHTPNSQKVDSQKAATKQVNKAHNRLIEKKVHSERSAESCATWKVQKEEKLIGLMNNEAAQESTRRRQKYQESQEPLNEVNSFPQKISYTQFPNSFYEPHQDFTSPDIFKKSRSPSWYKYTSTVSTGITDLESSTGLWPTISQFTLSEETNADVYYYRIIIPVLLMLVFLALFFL
T4 sequence (Q05655 whole entry): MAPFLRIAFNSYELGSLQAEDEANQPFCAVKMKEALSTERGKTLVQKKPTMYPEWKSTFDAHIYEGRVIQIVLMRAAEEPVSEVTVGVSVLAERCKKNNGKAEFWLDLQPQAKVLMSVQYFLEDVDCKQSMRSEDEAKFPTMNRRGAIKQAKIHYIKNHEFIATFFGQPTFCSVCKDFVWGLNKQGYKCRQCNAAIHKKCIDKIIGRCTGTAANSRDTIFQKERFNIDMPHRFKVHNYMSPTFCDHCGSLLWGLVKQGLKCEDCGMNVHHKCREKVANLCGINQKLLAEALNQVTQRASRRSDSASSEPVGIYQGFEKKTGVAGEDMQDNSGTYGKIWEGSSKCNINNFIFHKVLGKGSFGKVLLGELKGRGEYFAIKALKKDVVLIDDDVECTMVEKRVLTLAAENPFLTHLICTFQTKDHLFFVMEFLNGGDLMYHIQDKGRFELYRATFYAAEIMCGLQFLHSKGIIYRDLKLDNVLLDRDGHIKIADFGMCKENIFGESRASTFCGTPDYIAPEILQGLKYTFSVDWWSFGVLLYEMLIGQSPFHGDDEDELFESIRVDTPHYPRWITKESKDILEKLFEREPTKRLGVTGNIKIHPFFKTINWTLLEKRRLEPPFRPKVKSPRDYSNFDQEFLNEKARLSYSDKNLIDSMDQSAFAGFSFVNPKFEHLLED
T6 sequence (Q9HC98 whole entry, the tested form may be a part): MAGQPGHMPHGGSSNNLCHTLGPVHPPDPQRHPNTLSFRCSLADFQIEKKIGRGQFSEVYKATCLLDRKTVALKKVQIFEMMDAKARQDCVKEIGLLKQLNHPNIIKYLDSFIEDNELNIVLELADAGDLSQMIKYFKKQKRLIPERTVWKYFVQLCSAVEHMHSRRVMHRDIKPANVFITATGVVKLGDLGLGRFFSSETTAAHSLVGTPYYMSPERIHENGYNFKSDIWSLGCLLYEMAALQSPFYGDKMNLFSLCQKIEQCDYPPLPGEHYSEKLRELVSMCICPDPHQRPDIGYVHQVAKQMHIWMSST

Q: Which results are given for C=CC(=O)Nc1ccc(C(=O)N2CC[C@@H](Nc3ncc(C#N)cn3)C2)cc1 [Compound 4, (R)-N-(4-(3-((5-cyanopyrimidin-2-yl)amino)pyrrolidine-1-carbonyl)phenyl)acrylamide]?
A: inhibition at 1 µM [1]: -16%; inhibition at 1 µM [2]: -4%; inhibition at 1 µM [3]: 7%; inhibition at 1 µM [4]: -2%; inhibition at 1 µM [5]: 6%; inhibition at 1 µM [6]: 4%; inhibition at 1 µM [7]: 9%; inhibition at 1 µM [8]: 0%; inhibition at 1 µM [9]: 2%; inhibition at 1 µM [10]: 0%; inhibition at 1 µM [11]: -12%; inhibition at 1 µM [12]: 1%; inhibition at 1 µM [13]: -7%; inhibition at 1 µM [14]: 8%; inhibition at 1 µM [15]: -2%; inhibition at 1 µM [16]: -3%; inhibition at 1 µM [17]: 3%; inhibition at 1 µM [18]: 10%; inhibition at 1 µM [19]: -14%; inhibition at 1 µM [20]: 2%; inhibition at 1 µM [21]: 18%; inhibition at 1 µM [22]: -6%; inhibition at 1 µM [23]: -14%; inhibition at 1 µM [24]: -10%; inhibition at 1 µM [25]: 1%; inhibition at 1 µM [26]: 6%; inhibition at 1 µM [27]: 9%; inhibition at 1 µM [28]: 4%; inhibition at 1 µM [29]: -6%; inhibition at 1 µM [30]: 8%
